Patent US8404672B2, “Substituted heterocyclic compounds” (Bristol-Meyers Squibb Company, priority 2009, dated 2013)

Experiments:
circulating lymphocytes = test: Blood Lymphocyte Reduction Assay (BLR) in mice; assay type: in vivo; settings: BALB/c mice, oral, vs vehicle group
Method: Blood Lymphocyte Reduction Assay (BLR) in Rodents
Lewis rats or BALB/c mice were dosed orally with test article (as a solution or suspension in the vehicle) or vehicle alone (polyethylene glycol 300, “PEG300”). Blood was drawn at 4 hr and 24 h by retro-orbital bleeding. Blood lymphocyte counts were determined on an ADVIA® 120 Hematology Analyzer (Siemens Healthcare Diagnostics). The results were measured as a reduction in the percentage of circulating lymphocytes as compared to the vehicle treated group at the 4 hr and 24 hr measurement. The results represent the average results of all animals within each treatment group (n=3-4).
A compound of the present invention was tested in the Blood Lymphocyte Reduction assay (BLR) described hereinabove and the results are shown in Table D for rats and Table E for mice.

[1] = tested on: rat adjuvant-induced arthritis model (hind paw volume); test: Rat Adjuvant Induced Arthritis Assay (AA); assay type: in vivo, Male Lewis rats; settings: for Paw Swelling on Day 20 (Mean): vehicle mean 1.11
Method: Rat Adjuvant Induced Arthritis Assay (AA)
Male Lewis rats (150-175 g; Harlan, n=8 treatment group) were immunized at the base of the tail with 100 μl of 10 mg/ml freshly ground Mycobacterium butyricum (Difco Laboratories) in incomplete Freund's adjuvant (sigma). Animals were dosed once daily with the test article (as a solution or suspension in the vehicle) or vehicle alone (polyethylene glycol 300, “PEG300”) starting from the day of immunization. The volumes of their hind paws were measured in a water displacement plethysmometer (Ugo Basile, Italy). The baseline paw measurements were taken before onset of the disease (between day 7 to day 10). The paw measurements were then taken three times a week until the end of the study on day 20. All procedures involving animals were reviewed and approved by the Institutional Animal Care Use Committee.
A compound of the present invention was tested in the Rat Adjuvant Induced Arthritis assay described hereinabove and the results are shown in Table F.

## O=C(O)C1CN(Cc2ccc(-c3noc(-c4onc(-c5ccccn5)c4C(F)(F)F)n3)cc2)C1 [Example 1, 1-(4-(5-(3-(Pyridin-2-yl)-4-(trifluoromethyl)isoxazol-5-yl)-1,2,4-oxadiazol-3-yl)benzyl)azetidine-3-carboxylic acid]
Circulating lymphocytes; 0.008 mg/kg
  % reduction in lymphocytes at 4 hr.: 13%
  % reduction in lymphocytes at 24 hr.: 8%
Circulating lymphocytes; 0.04 mg/kg
  % reduction in lymphocytes at 4 hr.: 67%
  % reduction in lymphocytes at 24 hr.: 39%
Circulating lymphocytes; 0.2 mg/kg
  % reduction in lymphocytes at 4 hr.: 82%
  % reduction in lymphocytes at 24 hr.: 74%
Circulating lymphocytes; 1.0 mg/kg
  % reduction in lymphocytes at 4 hr.: 83%
  % reduction in lymphocytes at 24 hr.: 77%
[1]; 0.03 mg/kg once daily from day of immunization
  Paw Swelling on Day 20 (Mean): 1.48 mL
[1]; 0.1 mg/kg once daily from day of immunization
  Paw Swelling on Day 20 (Mean): 1.41 mL
[1]; 0.5 mg/kg once daily from day of immunization
  Paw Swelling on Day 20 (Mean): 0.72 mL
[1]; 3.0 mg/kg once daily from day of immunization
  Paw Swelling on Day 20 (Mean): 0.07 mL
[1]; Lewis rat, prophylactic oral dosing
  disease progression as measured by paw swelling (in words): inhibits disease progression
